Target: T1, acetylcholinesterase (Electrophorus electricus, UniProt O42275)
T1 construct: purchased SIGMA C 2888; host or cells: electric organ of Electrophorus electricus
Assay: cholinesterase inhibitory activity: acetylcholinesterase activity by the Ellman method
Format: biochemical
Settings: acetylthiocholine iodide substrate, DTNB, phosphate buffer pH 8, 25° C., absorbance at 412 nm; read-out: IC50 ± SD (inhibitory concentration at 50% activity of the enzyme)
Description: In order to measure the cholinesterase inhibitory activity of the compounds of the invention, the enzymatic activity of acetylcholinesterase is evaluated by the Ellman method (Biochemical Pharmacology, 1961, Vol. 7 pp 88-95, Ellman et al.).
The principle of the method comprises measuring the rate of thiocholine at the time of hydrolysis of the acetylcholine by the enzyme. The hydrolysis is accompanied by a continuous reaction between thiocholine and 5,5'-dithio-2-nitrobenzoic acid (DTNB) which leads to the formation of the yellow colored 5-thio-2-nitrobenzoate anion. The rate of the formation of the anion is measured by absorbance at 412 nm.
The material used is comprised of a 0.1 M (pH 8) phosphate buffer: Na2 HPO4 /NaH2 PO4, an enzyme: acetylcholinesterase from the electrical organ of the electric ray Electrophorus electricus (SIGMA C 2888) purified on Sephadex resin, a substrate: acetylthiocholine iodide 7.5 mM (21.67 mg/10 ml of phosphate buffer) and a reagant: 5,5'-dithio-2-nitrobenzoic acid (DTNB) 10 mM (39.6mg / 10 ml of phosphate buffer).
Thus 3 ml of phosphate buffer, 100 μl of DTNB, 2 μl enzyme, 3.3 μl of the compound according to the invention, and 200 μl of substrate are mixed at 25° C., subsequently the change of absorbance at 412 nm is measured immediately.

T1 sequence (O42275 24-633): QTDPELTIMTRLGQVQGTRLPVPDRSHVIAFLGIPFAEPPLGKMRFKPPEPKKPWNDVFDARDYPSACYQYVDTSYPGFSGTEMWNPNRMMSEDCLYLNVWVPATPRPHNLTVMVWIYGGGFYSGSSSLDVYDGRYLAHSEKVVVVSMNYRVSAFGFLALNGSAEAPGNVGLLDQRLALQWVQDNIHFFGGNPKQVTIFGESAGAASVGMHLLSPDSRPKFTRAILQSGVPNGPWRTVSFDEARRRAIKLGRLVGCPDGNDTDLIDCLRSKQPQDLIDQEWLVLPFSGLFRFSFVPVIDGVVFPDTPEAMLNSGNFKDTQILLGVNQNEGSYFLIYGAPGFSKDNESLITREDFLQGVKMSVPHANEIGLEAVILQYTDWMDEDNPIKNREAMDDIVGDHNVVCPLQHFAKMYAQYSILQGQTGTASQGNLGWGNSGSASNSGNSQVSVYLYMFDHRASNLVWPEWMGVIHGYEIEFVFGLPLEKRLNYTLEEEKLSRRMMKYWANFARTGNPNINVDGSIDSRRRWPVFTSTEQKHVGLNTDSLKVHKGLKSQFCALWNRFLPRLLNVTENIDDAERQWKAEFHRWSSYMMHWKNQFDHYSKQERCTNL

Row | Compound | IC50 [nM]
1 | COc1ccc2c3c1O[C@H]1C[C@@H](O)C=C[C@@]31CC[N+](C)=C2 [Example 1, galanthaminium methanesulfonate] | 80 ± 2
2 | COc1ccc2c3c1O[C@H]1C[C@@H](O)C=C[C@@]31CC[N+](CCCCCCn1cccc1)=C2 [Example 11, 10-N-demethyl-10-N-(6'pyrrolohexyl)-galanthaminium bromohydrate] | 170 ± 10

Reference: US5958903A, “Galanthamine derivatives, and their pharmaceutical compositions” (priority 1995, dated 1999)
